We go through 15 molecules from patent US12435294B2, “Prevention of the oxidation of perfumery raw materials and food raw materials” (Firmenich SA, priority 2018, dated 2025).

“And” between values parts separate entries of the source, which are not always exact repeats. Equal values may be shown once. Read-outs that look alike come from different tables or passages of the source.

Series [1] can be described thus: POV reduction in model citrus perfume (mixed citrus oil in 90/10 v/v ethanol/water). As to conditions: for Reduction in POV (%): vs untreated; for reduction in POV relative to untreated material: 7 days after addition, 1.0% w/v in model perfume.
Series [2] in a line: Solubility / miscibility observed on addition to the treated material.
Series [3] in a line: HPLC chemiluminescence peak area of oxidized limonene. The conditions noted are these: oxidized limonene 100 μL + 2 mg HDPA. The protocol: Preparation of the Treated Sample: Oxidized limonene (100 μL, with a starting POV of approximately 38 mmol/L) was treated with 2 mg of HDPA (approximately 2 eq of HP). The treated & un-treated limonene samples were allowed to stand on the benchtop under ambient laboratory light at room temperature, and HPLC Chemiluminescence measurements were taken periodically. The same quantity of untreated limonene was prepared in a 2nd vial and monitored similarly to the treated one for comparison.

Series [4] in a line: POV reduction in sunflower oil. As to conditions: for POV of treated oil / % Reduction in POV: 0.3358 g in 15 mL sunflower oil.
Series [5] can be described thus: POV reduction in autoxidized limonene. The conditions noted are these: for POV / POV reduction: 250 μL in 20 mL autoxidized limonene. The protocol:
The vial was shaken once and allowed to stand for 50 minutes. No further treatment was done prior to the POV testing. […] POV before treatment was 65.97 mEq./L, and POV after treatment was 17.21 mEq./L. […] The vial was shaken once and allowed to stand, while being monitored for POV value as a function of time. […] The vial was shaken once and allowed to stand, while being monitored for POV value as a function of time.

The mark [6] stands for this setting: model citrus perfume, DMESi 0.3247 g, 0 d since addition.
Setting [7] is: model citrus perfume, DMESi 0.3247 g, 0.08 d since addition.
[8] abbreviates: model citrus perfume, DMESi 0.3247 g, 1.29 d since addition.
The mark [9] stands for this setting: model citrus perfume, DMESi 0.3247 g, 5 d since addition.
[10] abbreviates: model citrus perfume, DMESi 0.3247 g, 14 d since addition.
Setting [11] is: 1 day, approximately 150 mg (1.0% w/v) in 15 mL model perfume (Examples 14, 20, 21).
[12] abbreviates: 2 days, 1.0% w/v in 15 mL model perfume (Examples 14, 20, 21).
Where [13] appears, read: 4 days, 1.0% w/v in 15 mL model perfume (Examples 14, 20, 21).
Where [14] appears, read: 7 days, 1.0% w/v in 15 mL model perfume (Examples 14, 20, 21).

In the case of `COC(=O)[C@H](CS)NC(C)=O` [N-acetylcysteine methyl ester], in series [1], the “% POV Reduction” value was 100% and the “POV after Treatment” value is recorded as 0.00 mmol/L.
On to `N[C@@H](CCC(=O)N[C@@H](CS)C(=O)NCC(=O)O)C(=O)O` [glutathione], for which the “% POV Reduction” value in series [1] (approximately 0.15 g in 15 mL model perfume, 3 days after addition) worked out at 100%. In addition, the “POV after Treatment” value in series [1] (approximately 0.15 g in 15 mL model perfume, 3 days after addition, untreated 5.55 mmol/L) is 0.00 mmol/L.
As for `CCOC(=O)[C@@H](N)CS.Cl` [L-Cysteine ethyl ester hydrochloride], in series [1] (approximately 0.15 g in 15 mL model perfume, 89 minutes after addition), the “% POV Reduction” value is listed as 100%. Further, the “POV after Treatment” value in series [1] (approximately 0.15 g in 15 mL model perfume, 89 minutes after addition, untreated 5.55 mmol/L) is 0.00 mmol/L.
On to `CC[SiH](C)C` [DMESi, Dimethylethylsilane], for which the “POV (mmol/L) of treated” value in series [1] (setting [6]) worked out at 13.2 mmol/L; in series [1] (setting [7]) it was 9.29 mmol/L; in series [1] (setting [8]), 9.32 mmol/L; in series [1] (setting [9]), 10.53 mmol/L; in series [1] (setting [10]), 13.65 mmol/L. Besides, the “Reduction in POV (%)” value in series [1] (setting [6]) stood at 0.00%; in series [1] (setting [7]), 29.62%; in series [1] (setting [8]), 33.43%; in series [1] (setting [9]) it was 30.03%; in series [1] (setting [10]), 24.38%.
On to `O=C(O)C(=O)c1ccco1` [α-Oxo-2-furanacetic acid, α-oxo-2-furanacetic acid], for which the “solubility in mixed citrus oil (in words)” value in series [2] (on addition to mixed citrus oil) is listed as “The majority of the added α-oxo-2-furanacetic acid did not dissolve”.
As to “2-Phospho-L-ascorbic acid trisodium salt [Vc-PTNa]”, in series [1] (trisodium salt), the “POV (mmol/L) of treated” value is 12.4 mmol/L and 11.7 mmol/L and 11.57 mmol/L and 10.15 mmol/L and 8.7 mmol/L and 9.22 mmol/L and 9.49 mmol/L.
Consider `O=CC(=O)O` [Glyoxylic Acid], for which the “POV after Treatment” value in series [1] (model citrus perfume, 3 days after addition of treating compound) is on record as 3.00 mmol/L; in series [1] (model citrus perfume, 10 days after addition of treating compound), 1.61 mmol/L. The “% POV Reduction” value is on record as 54.6% in series [1] (model citrus perfume, 3 days after addition of treating compound, vs untreated sample) and 80.8% in series [1] (model citrus perfume, 10 days after addition of treating compound, vs untreated sample).
As to `CC1=C(C(=O)N(C)C)CC(C(=O)N(C)C)=C(C)N1` [HDPA, N(3),N(3),N(5),N(5),2,6-Hexamethyl-1,4-Dihydro-3,5-Pyridinedicarboxamide], the “Peak Area Treated” value came out at 12723 in series [3] (treatment time 1 day), 12128 in series [3] (treatment time 6 days), 10978 in series [3] (treatment time 13 days) and 17089 in series [3] (treatment time 20 days).
For `C[SiH](C)O[Si](C)(C)C` [PMDSi, Pentamethyldisiloxane], the “solubility / miscibility in model citrus perfume (in words)” value in series [2] (on addition to hydroalcoholic model citrus perfume) is “miscible with the perfume”.
As for “L-Ascorbic acid 2-phosphate sesqui-magnesium salt hydrate [Vc-PSeMg]”, the “POV (mmol/L) of treated” value in series [1] (hydrate) is 12.4 mmol/L and 12.32 mmol/L and 12.66 mmol/L and 12.28 mmol/L and 13.26 mmol/L and 15.25 mmol/L and 20.2 mmol/L.
Consider `CN(C)CCO.CN(C)CCO.O=C(O)CCC(=O)C(=O)O` [AKG DiDeanol], for which the “POV of Treated Perfume” value in series [1] (60 min, approximately 200 mg (1.0% w/v) in 20 mL model perfume (Example 9)) is 5.95 mmol/L; in series [1] (75 min, 1.0% w/v in 20 mL model perfume (Example 9)) it was 5.66 mmol/L; in series [1] (115 min, 1.0% w/v in 20 mL model perfume (Example 9)), 4.96 mmol/L; in series [1] (195 min, 1.0% w/v in 20 mL model perfume (Example 9)), 3.20 mmol/L; in series [1] (210 min, 1.0% w/v in 20 mL model perfume (Example 9)) it was 3.08 mmol/L; in series [1] (300 min (5 hours), 1.0% w/v in 20 mL model perfume (Example 9)), 2.31 mmol/L. Besides, the “POV of Treated Perfume” value in series [1] (370 min, 1.0% w/v in 20 mL model perfume (Example 9)) was determined as 1.73 mmol/L; in series [1] (380 min, 1.0% w/v in 20 mL model perfume (Example 9)), 1.72 mmol/L; in series [1] ([…] (24 hours), 1.0% w/v in 20 mL model perfume (Example 9), indistinguishable from blank), 0.0 mmol/L.
Turning to `CCCCCCCCCCN(C)C.O=C(O)C(=O)c1ccco1` [FAA-DiMeC10A], the “POV of Treated Perfume” value in series [1] (setting [11]) worked out at 5.06 mmol/L; in series [1] (setting [12]), 4.89 mmol/L; in series [1] (setting [13]) it was 4.68 mmol/L; in series [1] (setting [14]) it was 4.28 mmol/L. In addition, in series [1], the “reduction in POV relative to untreated material” value is 40.0%. Besides, the “POV of treated oil” value in series [4] (85 minutes since addition) turned out to be 5.16 mmol/L; in series [4] (140 minutes), 2.97 mmol/L; in series [4] (1320 mins (22 hrs)), 0.43 mmol/L; in series [4] (23 days, indistinguishable from BLANK) it was 0.00 mmol/L. The “% Reduction in POV” value in series [4] (85 minutes) was determined as 68.8%; in series [4] (140 minutes) it was 82.1%; in series [4] (1320 mins (22 hrs)), 97.4%; in series [4] (23 days), 100%.
For `CCC(=O)C(=O)O` [2-oxobutyric acid], the POV in series [5] (3 min since addition) is 43.680 mEq/L; in series [5] (20 min since addition), 22.140 mEq/L; in series [5] (35 min since addition), 22.681 mEq/L; in series [5] (44 min since addition), 19.968 mEq/L; in series [5] (66 min since addition), 21.406 mEq/L. The POV reduction was 34.1% in series [5] (3 min since addition); 66.6% in series [5] (20 min since addition); 65.8% in series [5] (35 min since addition); 69.9% in series [5] (44 min since addition); 67.7% in series [5] (66 min since addition). For the same molecule, the “measured POV” value in series [5] (additional 500 μL added (after 250 μL), additional 24 hours, 20 mL autoxidized limonene) stood at 8.577 mEq./L. This molecule displayed a total reduction in series [5] (additional 500 μL added, additional 24 hours) of 87.1%.
Turning to `CCCC(=O)C(=O)O` [2-oxovaleric acid], the “reduction in POV” value in series [5] (100 μL in 10 mL autoxidized limonene, 50 minutes, vs 65.97 mEq./L before) is “approximately 74%”. In series [5] (100 μL in 10 mL autoxidized limonene, stood 50 minutes), this molecule returned a POV after Treatment of 17.21 mEq./L. Moreover, the POV in series [4] (30 minutes since addition, 250 μL in 25 mL sunflower oil) was 7.38 mmol/L; in series [4] (50 minutes since addition, 250 μL in 25 mL sunflower oil), 7.84 mmol/L; in series [4] (23 hours since addition, 250 μL in 25 mL sunflower oil, single measurements), 4.95 mmol/L and 4.67 mmol/L; in series [4] (46 hours since addition, 250 μL in 25 mL sunflower oil, single measurements), 5.34 mmol/L and 5.10 mmol/L; in series [4] (15 days since addition, 250 μL in 25 mL sunflower oil, single measurements), 2.27 mmol/L and 2.05 mmol/L and 1.99 mmol/L. The POV reduction amounted to 16.2% in series [4] (30 minutes, 250 μL in 25 mL sunflower oil, vs most recent untreated POV); 11.0% in series [4] (50 minutes, 250 μL in 25 mL sunflower oil, vs most recent untreated POV); 45.4% in series [4] (23 hours, 250 μL in 25 mL sunflower oil, vs most recent untreated POV); 53.0% in series [4] (46 hours, 250 μL in 25 mL sunflower oil, vs most recent untreated POV); 82.9% in series [4] (15 days, 250 μL in 25 mL sunflower oil (0.83% v/v), vs untreated oil). In addition, the “POV, averaged value (in parentheses)” value in series [4] (23 hours since addition, 250 μL in 25 mL sunflower oil) came out at 4.81 mmol/L; in series [4] (46 hours since addition, 250 μL in 25 mL sunflower oil) it was 5.22 mmol/L; in series [4] (15 days since addition, 250 μL in 25 mL sunflower oil), 2.10 mmol/L.
As for `O=C(O)C(=O)c1ccccc1.O=C1NCCN1CCO` [PhGA-HEI], the “POV of Treated Perfume” value in series [1] (setting [11]) was found to be 3.51 mmol/L; in series [1] (setting [12]), 3.18 mmol/L; in series [1] (setting [13]), 3.06 mmol/L; in series [1] (setting [14]), 2.94 mmol/L. Also, in series [1], the “reduction in POV relative to untreated material” value was 58.8%.
